Where two headings read alike, the source gives them in different places.
Columns and labels:
[1] = test system: GIST 430 cells; test: GIST 430 Cell Proliferation Assay (resazurin); type: cell-based; settings: Homo sapiens; GIST430 cell proliferation
Summary of the method: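 Five thousand cells per well were exposed to serially diluted compound in complete growth medium for 115 h at 37 degrees Celsius, 5% CO2. Resazurin was then added for a further 5 h, fluorescence read at 540 nm excitation/600 nm emission, and IC50 values calculated.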

[2] = biological target: c-KIT kinase (uKIT) (Homo sapiens (Human), UniProt P10721); test: Biochemical Assay for uKIT (coupled pyruvate kinase/lactate dehydrogenase assay); settings: Inhibition of biochemical activity of uKIT kinase; 1 mM ATP
c-KIT kinase (uKIT), sequence (P10721 other isoform, or with tags, fused parts or gaps): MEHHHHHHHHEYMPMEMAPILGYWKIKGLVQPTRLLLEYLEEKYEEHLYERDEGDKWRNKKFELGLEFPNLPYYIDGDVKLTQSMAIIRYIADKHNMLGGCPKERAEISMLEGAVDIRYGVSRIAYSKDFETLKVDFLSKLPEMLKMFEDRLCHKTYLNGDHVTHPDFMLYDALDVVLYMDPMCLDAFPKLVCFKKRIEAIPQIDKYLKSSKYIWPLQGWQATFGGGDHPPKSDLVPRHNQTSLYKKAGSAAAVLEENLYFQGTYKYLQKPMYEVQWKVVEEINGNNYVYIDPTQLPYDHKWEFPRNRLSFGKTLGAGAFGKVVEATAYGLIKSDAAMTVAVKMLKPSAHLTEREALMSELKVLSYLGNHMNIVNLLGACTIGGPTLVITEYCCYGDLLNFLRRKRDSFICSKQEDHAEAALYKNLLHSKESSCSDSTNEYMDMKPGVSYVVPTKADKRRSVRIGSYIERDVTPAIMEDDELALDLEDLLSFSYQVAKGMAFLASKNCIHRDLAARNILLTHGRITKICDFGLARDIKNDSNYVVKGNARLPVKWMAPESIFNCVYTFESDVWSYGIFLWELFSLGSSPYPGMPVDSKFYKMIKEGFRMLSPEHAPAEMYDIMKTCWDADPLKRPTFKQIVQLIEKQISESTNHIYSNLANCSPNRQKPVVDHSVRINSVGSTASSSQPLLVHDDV
Summary of the method: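 Continuous coupled PK/LDH assay following NADH oxidation at 340 nm for 6 h at 30° C, with 16 nM or 4.36 nM KIT (two constructs), 0.7 mg/mL PE4Y, 1 mM ATP, pH 7.5. Rates from the 2-3 h window converted to percent inhibition versus controls; IC50 fitted.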

[3] = test system: Ba/F3 KIT mutant cells; test: Ba/F3 mutant KIT Cell Proliferation Assays (resazurin); type: cell-based; settings: Mus musculus, BaF3
Summary of the method: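 IC50 values come from resazurin fluorescence (ex 540, em 600) after 5 h dye exposure, added as a 440 μM solution. Cells were IL-3-independent Ba/F3 expressing mutant KIT from a lentiviral vector, puromycin-selected.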

[4] = Ba/F3 KIT AYdup-V654A mutant cell proliferation, read-out: AYdup-V654A IC50
[5] = Ba/F3 KIT exon11del-V654A mutant cell proliferation, read-out: exon11del-V654A IC50
[6] = Ba/F3 KIT exon11del-Y823D mutant cell proliferation, read-out: exon11del-Y823D IC50
[7] = Ba/F3 KIT AYdup mutant cell proliferation, read-out: AYdup IC50
[8] = Ba/F3 KIT AYdup-D816G mutant cell proliferation, read-out: AYdup-D816G IC50

| Structure (SMILES) | IC50 [2] [µM] | IC50 [3, 4] [µM] | IC50 [3, 5] [µM] | IC50 [3, 6] [µM] | IC50 [3, 7] [µM] | IC50 [3, 8] [µM] | IC50 [1] [µM] |
| --- | --- | --- | --- | --- | --- | --- | --- |
| CCN(C(=O)CC(=O)Nc1ccc(Nc2ncnc3cc(OCCOC)cc(F)c23)cc1)C(C)C [Example 146] | 0.1 to 1 | 0.1 to 1 | 0.01 to 0.1 |  |  |  | 0.1 to 1 |
| COCCOc1cc(OC)c2c(Nc3ccc(NC(=O)CC(=O)NC4CCC4)cc3)ncnc2c1 [Example 183] | 0.01 to 0.1 | ≤ 0.01 | 0.01 to 0.1 | 0.01 to 0.1 |  |  | 0.01 to 0.1 |
| COCCOc1cc(F)c2c(Nc3ccc(NC(=O)CC(=O)N4CCC(C)(C)C4)cc3)ncnc2c1 [Example 141] | 0.01 to 0.1 | 0.01 to 0.1 | ≤ 0.01 | 0.01 to 0.1 | ≤ 0.01 | 0.01 to 0.1 | 0.01 to 0.1 |
| COCCOc1cc(F)c2c(Nc3ccc(NC(=O)C(=O)NCCC(C)(C)C)cc3)ncnc2c1 [Example 125] | 0.01 to 0.1 | 0.01 to 0.1 | 0.01 to 0.1 |  |  |  | 0.01 to 0.1 |
| COCCOc1cc(F)c2c(Nc3ccc(NC(=O)CC(=O)NCC4CC4)cc3)ncnc2c1 [Example 77] | 0.01 to 0.1 | 0.01 to 0.1 | ≤ 0.01 | 0.1 to 1 |  |  | 0.01 to 0.1 |
| COCCOc1cc(F)c2c(Nc3ccc(NC(=O)NC(=O)CC4(C(F)(F)F)COC4)cc3)ncnc2c1 [Example 137] | 0.01 to 0.1 | 0.01 to 0.1 | 0.01 to 0.1 | > 1 |  |  | 0.01 to 0.1 |
| COCCOc1cc(F)c2c(Nc3ccc(NC(=O)CC(=O)N4CCC(C(F)(F)F)C4)cc3)ncnc2c1 (centres unmarked) [Example 153] | 0.01 to 0.1 | 0.01 to 0.1 | 0.1 to 1 | 0.1 to 1 |  |  | 0.01 to 0.1 |
| COCCOc1cc(F)c2c(Nc3ccc(NC(=O)CC(=O)NCCC(C)C)cc3)ncnc2c1 [Example 100] | 0.01 to 0.1 | 0.01 to 0.1 | 0.01 to 0.1 | 0.1 to 1 |  |  | 0.01 to 0.1 |
| COCCOc1cc(F)c2c(Nc3ccc(NC(=O)CC(=O)N4CCC[C@H]4C)cc3)ncnc2c1 [Example 197] | 0.01 to 0.1 | 0.01 to 0.1 | 0.1 to 1 | 0.1 to 1 |  |  | 0.01 to 0.1 |
| COCCOc1cc(F)c2c(Nc3ccc(NC(=O)CC(=O)NCC4(C)CCOCC4)cc3)ncnc2c1 [Example 109] | 0.01 to 0.1 | 0.1 to 1 | 0.01 to 0.1 | > 1 |  |  | 0.01 to 0.1 |
| COCCOc1cc(F)c2c(Nc3ccc(NC(=O)CC(=O)NCC4CC(C)(C)C4)cc3)ncnc2c1 [Example 136] | 0.01 to 0.1 | 0.01 to 0.1 | ≤ 0.01 | 0.1 to 1 |  |  | 0.01 to 0.1 |

Second part, led by results:

| IC50 [2] [µM] | IC50 [3, 4] [µM] | IC50 [3, 5] [µM] | IC50 [3, 6] [µM] | IC50 [3, 7] [µM] | IC50 [3, 8] [µM] | Structure (SMILES) | IC50 [1] [µM] |
| --- | --- | --- | --- | --- | --- | --- | --- |
| 0.01 to 0.1 | 0.01 to 0.1 | 0.01 to 0.1 | 0.01 to 0.1 |  |  | COCCOc1cc(F)c2c(Nc3ccc(NC(=O)CC(=O)N4CCCC[C@@H]4C(F)(F)F)cc3)ncnc2c1 [Example 170] | 0.01 to 0.1 |
| 0.01 to 0.1 | 0.01 to 0.1 | ≤ 0.01 | 0.01 to 0.1 | ≤ 0.01 | 0.01 to 0.1 | COCCOc1cc(F)c2c(Nc3ccc(NC(=O)CC(=O)NC4CC(C)(C)C4)cc3)ncnc2c1 [Example 112] | ≤ 0.01 |
| ≤ 0.01 | 0.01 to 0.1 | ≤ 0.01 | ≤ 0.01 | ≤ 0.01 | ≤ 0.01 | CC(C)(C#N)CCNC(=O)Nc1ccc(Nc2ncnc3cc(OCCN4CCOCC4)cc(F)c23)cc1 [Example 104] | ≤ 0.01 |
| ≤ 0.01 | 0.01 to 0.1 | ≤ 0.01 | 0.01 to 0.1 |  |  | COCCOc1cc(F)c2c(Nc3ccc(NC(=O)NCCCC(C)(C)F)cc3)ncnc2c1 [Example 106] | ≤ 0.01 |
| ≤ 0.01 | 0.01 to 0.1 | 0.01 to 0.1 | 0.1 to 1 |  |  | COC[C@@H](C)Oc1cc(F)c2c(Nc3ccc(NC(=O)NCCC(C)(C)F)cc3)ncnc2c1 [Example 155] | 0.1 to 1 |
| ≤ 0.01 | ≤ 0.01 | ≤ 0.01 | 0.01 to 0.1 |  |  | COCCOc1cc(F)c2c(Nc3ccc(NC(=O)NCC=C(C)C)cc3)ncnc2c1 [Example 133] | 0.01 to 0.1 |

Reference: patent US20240116877A1, “KIT KINASE INHIBITORS AND METHODS OF USE THEREOF” (Deciphera Pharmaceuticals, LLC, priority 2021, published 2024)
